The record followed here is patent US20100129297A1, “USE OF AN AQUEOUS GRAPE SEED EXTRACT COMBINED WITH AT LEAST ONE FLUORINE SALT TO COMBAT THE FORMATION OR ACCUMULATION OF DENTAL BIOFILM AND COMPOSITIONS COMPRISING SAID COMBINATION” (priority 2007, published 2010).

The structures appear in SMILES notation.

The test system of assay [1] is glucosyl transferases (GTF). In words: Inhibition of glucosyl transferases (GTF): initial reaction rate, released fructose (DNS test). The class given is biochemical, Streptococcus sobrinus ATCC 33478. The protocol:
A strain of Streptococcus sobrinus ATCC 33478 is placed in 1 liter of BHI (brain heart infusion) medium enriched in glucose (10 g/L final concentration) in anaerobiosis at 37° C. for 18 hours. This bacterial medium, the pH of which was brought back to 6.5 by means of a NaOH 1N solution, is then centrifuged for 30 minutes at 8,000 rpm at 4° C. The glucosyl transferase, present in the supernatant is concentrated by precipitation with ammonium sulfate. The latter (50% w/saturation v) is gradually added to the supernatant held at 4° C. under stirring for 30 minutes. The mixture is then centrifuged at 8,000 rpm, 4° for 30 minutes. […]
(§1) The results are expressed as inhibition percentages relatively to control solutions (ultra pure water): • the inhibition percentage of the initial rate of the enzymatic reaction (noted as “fructose” in the following table of results) on the one hand • the inhibition percentage of formation of insoluble glucan produced after 24 hours of incubation at 37° C. […]
Dextran interferes on the whole of the colorimetric methods for assaying proteins, because dextran particles diffract light and generate parasitic absorbance. The amount of glucosyl transferase is therefore measured by its activity under standard conditions. […]

The test system of assay [2] is Porphyromonas. In words: Preventive action on an experimental buccal biofilm model, Porphyromonas count. The assay is classed as cell-based, Porphyromonas gingivalis ATCC 33277. The settings on record: fluorinol compared with NaF, each combined with grape seed extract. As to the method:
The bacterial strains used are: • Streptococcus mutans ATCC 25175 • Streptococcus sobrinus ATCC 33478 • Porphyromonas gingivalis ATCC 33277
These different bacteria, cultivated in their specific medium, are inoculated into 10 mL of universal culture medium FUM (Fluid Universal Medium, composition of the medium in Annex 1), and then incubated in anaerobiosis at 37° C. for 24 hours.
After checking the purity with a microscope, the series of cultures are independently adjusted to OD550 1.0±0.05 (i.e. about 10^7 cells per milliliter) by dilutions with FUM. […]
Serial dilutions to 1:10 of this cell suspension are carried out until concentrations of 10^−2 and 10^−4 are obtained, and then 50 μL of these dilutions are spread over the 4 specific geloses used: mitis salivarius agar, MRS, wilkins chalgren agar (WCA) and blood geloses. The geloses are then placed in anaerobiosis at 37° C. for 48-72 hours and the then the number of formed colonies for each species is counted. […]
The number of colonies formed after 48-72 hours of incubation of the molecules with bacterial biofilms is expressed, after counting, in Colony Forming Units per analyzed Biofilm (or CFU/Biofilm) by the formula:
[Number of counted colonies×dilution factor (10^2 to 10^4)]/Inoculum volume (0.05 mL) […]

Assay [3] concerns glucosyl transferases (GTF). Put plainly: Inhibition of glucosyl transferases (GTF): amount of synthesized insoluble glucan (weighing). The assay is classed as biochemical, Streptococcus sobrinus ATCC 33478. The following applies: 24 hours at 37° C. As to the method: A strain of Streptococcus sobrinus ATCC 33478 is placed in 1 liter of BHI (brain heart infusion) medium enriched in glucose (10 g/L final concentration) in anaerobiosis at 37° C. for 18 hours. This bacterial medium, the pH of which was brought back to 6.5 by means of a NaOH 1N solution, is then centrifuged for 30 minutes at 8,000 rpm at 4° C. The glucosyl transferase, present in the supernatant is concentrated by precipitation with ammonium sulfate. The latter (50% w/saturation v) is gradually added to the supernatant held at 4° C. under stirring for 30 minutes. The mixture is then centrifuged at 8,000 rpm, 4° for 30 minutes. The pellet, rich in glucosyl transferase, is then taken up with phosphate/potassium K2HPO4 buffer (10 mM, pH 10.5), dialyzed (MWC 6-8000; width 14.6 mm) for 16 hours and then frozen at −20° C. This is the solution of purified GTF. […]
as §1
The amount of soluble glucan is measured 24 hours after the beginning of the enzymatic reaction. […]

Consider `F.OCc1cccnc1` [fluorinol, 3-pyridyl methanol hydrofluoride], for which the “inhibition percentage of the initial enzymatic reaction (fructose)” value in assay [1] (fluorinol alone 0.68%) came out at 10.3%; in assay [1] (fluorinol alone 1.02%) it was 20.6%. In addition, the “effect of potentialization of the grape seed extract on Porphyromonas” value in assay [2] was “larger than that of NaF”. In addition, the “synthesis of insoluble glucan” value in assay [3] (fluorinol alone 0.68%) and in assay [3] (fluorinol alone 1.02%) was “inefficient” in each case.
